{
  "source": "paper PMC9268013",
  "about": "“Design, Synthesis, and Biological Evaluation of N14-Amino Acid-Substituted Tetrandrine Derivatives as Potential Antitumor Agents against Human Colorectal Cancer” (Molecules, 2022)",
  "key": {"Beclin-1": {"system": "Beclin-1", "experiment": "Western blot, Beclin-1 in HCT-15 cells", "format": "cell-based, human", "settings": "HCT-15, increasing concentration, p < 0.01", "method": "(§1) The protein levels in HCT-15 cells were evaluated via Western blot analysis. The cells were cultured in dishes (10^7 cells per dish) and incubated overnight at 37 °C, 0.625, 1.25, 2.5, and 5 μM of 16 was added in triplicate after 24 h of incubation. Then, the cells were harvested and lysed in Laemmli buffer (glycerol, 1M TRIS pH 6.8, 1% SDS, MQ H2O and 20% β-mercaptoethanol). The samples were boiled for 5 min at 95 °C, and the protein content was determined using a BCA kit. Equal amounts of 30 μg of sample were placed on a Tris/HCl gel and separated by SDS-PAGE electrophoresis. Then, the samples were transferred to a PVDF membrane (Milibo, Co., Ltd., Billyka, MA, USA) and blocked with 5% skimmed milk powder for 2 h. Diluted primary antibodies Bcl-2 (1:3000), Bax (1:10,000), caspase-3 (l:2000), p62 (1:1000), Beclin1 (1:1000), LC3 (1:2000), and β-actin (1:1000) were incubated overnight at 4 °C, followed by a horseradish peroxidase-conjugated goat anti-rabbit IgG secondary antibody (ProteinTech, China) for 2 h at room temperature. Then, immunoreactivity was developed with diaminobenzidine solution, and scanned and recorded by a gel imaging system (G:BOX Chemi XL1.4, Frederick, MD, USA)."}, "[1]": {"system": "human pancreatic cancer cells (BxPC-3)", "experiment": "MTT antiproliferative assay, BxPC-3", "format": "cell-based", "method": "(§2) Human lung cancer cell (A549,), human umbilical vein endothelial cells (HUVECs,), human colon cancer cell lines (HCT-15), human breast cancer cells (MCF-7), human liver cancer cells (HepG2), human pancreatic cancer cells (BxPC-3), and human hepatic cell line (L-02) were obtained from the Sichuan University. A549, HUVECs, and L-02 were cultured in DMEM medium (high glucose, HyClone, GE Healthcare, Sydney, Australia). Human colon cancer cell lines HCT-15, human pancreatic cancer cells […] BxPC-3 were cultured in RPMI-1640. Human breast cancer cells MCF-7 and human liver cancer cells HepG2 were cultured in MEM medium. All the mediums, including 10% fetal bovine serum (FBS, HyClone, GE Healthcare, Sydney, Australia) and 1% ampicillin/streptomycin, were used to culture the above cells at 37 °C in a humidified atmosphere (5% CO2 and 95% air).\n(§3) The antiproliferative activity of the title compounds was determined using the MTT (3-(4,5-dimethylthiazol-2-yl)-2,5-diphenyltetrazolium bromide, Sigma-Aldrich, Saint Louis, MO, USA) assay on different cells. Cells lines were seeded into 96-well plates at a density of 2000 to 6000 cells/well. DMSO was used to dissolve the test compounds, and TET was used as a positive control. After 24 h, the test compounds were added at different concentrations (0.625, 1.25, 2.5, 5, 10, and 20 μM) and incubated at 37 °C for 72 h. MTT was added to each well at a final concentration of 0.5 mg/mL and incubated at 37 °C for 4 h. Then, 150 μL of DMSO was added to each well to dissolve the formazan crystals. The absorbance was measured at 570 nm by a microplate reader (ELX800UV, Bio-Tek, Windoski, VT, USA). All measurements were repeated at least three times under the same conditions. Graphpad Prism 8.0 was used to calculate the IC50 values."}, "[2]": {"system": "microtubule-associated protein 1 light chain 3 (LC3)", "experiment": "Western blot, LC3-II/LC3-I in HCT-15 cells", "format": "cell-based, human", "settings": "HCT-15, 0.625, 1.25, 2.5, and 5 μM, p < 0.05", "method": "as §1"}, "[3]": {"experiment": "Aqueous solubility determination by HPLC", "format": "physicochemical", "settings": "neutral water, vs TET", "method": "Briefly, each tested compound (10 mg) was dissolved in 10 mL of CH3OH, and the standard solution (0.5 mL) was used to determine the wavelength of maximum absorbance by HPLC. The solution was diluted as necessary, and the solubility was determined by linear regression with R^2 > 0.999. Each tested compound (5 mg) was ultrasound dissolved in 3 mL of pure water for 1 h at room temperature, and the mixture was then […] at 3000 rpm for 15 min. The saturated supernatants were determined by HPLC at the wavelength of the maximum absorption, and the absorbances were obtained. The solubility was calculated according to the standard curve."}, "p62/SQSTM1 (P62)": {"system": "p62/SQSTM1 (P62)", "experiment": "Western blot, p62/SQSTM1 in HCT-15 cells", "format": "cell-based, human", "settings": "HCT-15, 1.25, 2.5, and 5 μM, concentration-dependent, p < 0.05", "method": "as §1"}, "HCT-15 cells": {"system": "HCT-15 cells", "experiment": "Wound healing (migration) assay, HCT-15", "format": "cell-based, human", "settings": "24 h, control approximately 46%", "method": "HCT-15 cells or HUVECs were seeded in six-well culture plates and allowed to grow to 80–90% confluence. Subsequently, a cell-free line was manually created by scratching the confluent cell monolayers with a 200 μL sterile pipette tip, and the detached cells were washed with PBS. The cells were then incubated with 10% FBS and different concentrations of 16 (0.625, 1.25, 2.5, 5, and 10 μM). Then, 24 h later, images of the same location were obtained using a microscope (Nikon ECLIPSE TE2000-U, Tokyo, Japan). Each experiment was carried out at least three times."}, "[4]": {"experiment": "Live/dead FDA/PI double staining, HUVEC", "format": "cell-based", "settings": "human, HUVEC cells, read-out: Viable cell percentage", "method": "HCT-15 or HUVEC cells were cultured in six-well plates for 24 h. The cells were washed with PBS and incubated with medium containing 0.625, 1.25, 2.5, 5, and 10 μM of 16 for 48 h. Afterwards, the medium was replaced, and the cells were washed twice with PBS, resuspended in the solution containing 100 μL FDA (0.02 mg/mL, Sigma, St. Louis, MO, USA) and 30 μL PI (0.02 mg/mL, Sigma, St. Louis, MO, USA), and treated in the dark at room temperature for 10 min. The cells were imaged with a fluorescence microscope (Nikon ECLIPSE TE2000-U, Tokyo, Japan)."}, "HUVECs": {"system": "HUVECs", "experiment": "Tube formation assay on Matrigel", "format": "cell-based, human", "settings": "HUVEC on Matrigel, 5 μM, 8 h", "method": "Briefly, a 96-well plate was pre-coated with 50 μL Matrigel per well and incubated at 37 °C for 30 min. Then, 100 μL of HUVECs suspension (2 × 10^4) were added to each well. The cells were cultured with 1.25, 2.5, and 5 μM of 16 for 8 h. Subsequently, the tube formation was observed, randomly selected, and recorded by an inverted microscope."}, "[5]": {"system": "human liver cancer cells (HepG2)", "experiment": "MTT antiproliferative assay, HepG2", "format": "cell-based", "method": "as §2, §3"}, "[6]": {"system": "human normal hepatocyte cells (L-02)", "experiment": "MTT toxicity assay, normal hepatocytes L-02", "format": "cell-based", "settings": "72 h, normal hepatocyte L-02 (toxicity), read-out: Antiproliferative Activity (IC50/μM) L-02", "method": "as §2, §3"}},
  "note": "Values joined by “and” are separate entries in the source; they are usually repeats but may differ in a detail not shown here. Identical values can stand only once.",
  "data": [
    {"smiles": "COc1cc(NC(=O)[C@@H]2CCCN2)c2cc1Oc1ccc(cc1)C[C@H]1c3cc(c(OC)cc3CCN1C)Oc1c(OC)c(OC)cc3c1[C@H](C2)N(C)CC3", "note": "[Compound 16, 14-N-(L-proline)-tetrandrine]", "values": [
      {"measurement": "Beclin-1 level", "setting": "Beclin-1", "value": "markedly enhanced"},
      {"measurement": "IC50", "setting": "[1]; 72 h", "value": "1.12 ± 0.1", "unit": "µM"},
      {"measurement": "IC50", "setting": "[1]; Homo sapiens, BXPC-3, 72 h", "value": "< 1.5", "unit": "µM"},
      {"measurement": "Ratio of LC3-II to LC3-I", "setting": "[2]", "value": "increased"},
      {"measurement": "Increase of aqueous solubility compared to TET", "setting": "[3]", "value": "> 5 fold and 5 fold"},
      {"measurement": "P62 contents", "setting": "p62/SQSTM1 (P62)", "value": "significantly lessened"},
      {"measurement": "Scratched area covered (migration rate)", "setting": "HCT-15 cells; HCT-15, 5 μM", "value": 14.1, "unit": "%"},
      {"measurement": "Scratched area covered (migration rate)", "setting": "HCT-15 cells; HCT-15, 10 μM", "value": 10.5, "unit": "%"},
      {"measurement": "viability at 48 h, 5 µM", "setting": "[4]; 5 μM", "value": 1.9, "unit": "%"},
      {"measurement": "viability at 48 h, 10 µM", "setting": "[4]; 10 μM", "value": 0.1, "unit": "%"},
      {"measurement": "Tube formation", "setting": "HUVECs", "value": "almost no tube structure"},
      {"measurement": "IC50", "setting": "[5]; 72 h", "value": "1.05 ± 0.03", "unit": "µM"},
      {"measurement": "IC50", "setting": "[5]; Homo sapiens, HepG2, 72 h", "value": "< 1.5", "unit": "µM"},
      {"measurement": "IC50", "setting": "[6]", "value": "> 20", "unit": "µM"}
    ]}
  ]
}
